# Assay results published in paper PMC9841589, “Identification of 2-Aminoacyl-1,3,4-thiadiazoles as Prostaglandin E2 and Leukotriene Biosynthesis Inhibitors” (ACS Medicinal Chemistry Letters, 2022).
# Tests used:
# Human recombinant 5-LO = molecular target: T1, Human recombinant 5-LO (Homo sapiens, UniProt P09917); assay: Cell-free 5-LO activity assay; type: biochemical; conditions: percentage of uninhibited control (100%), n = 3; n.i.: no inhibitory activity observed
# T1 construct: made in house; host or cells: E. coli BL21 transformed with pT3-5-LO plasmid
# T1 sequence (P09917 1-674): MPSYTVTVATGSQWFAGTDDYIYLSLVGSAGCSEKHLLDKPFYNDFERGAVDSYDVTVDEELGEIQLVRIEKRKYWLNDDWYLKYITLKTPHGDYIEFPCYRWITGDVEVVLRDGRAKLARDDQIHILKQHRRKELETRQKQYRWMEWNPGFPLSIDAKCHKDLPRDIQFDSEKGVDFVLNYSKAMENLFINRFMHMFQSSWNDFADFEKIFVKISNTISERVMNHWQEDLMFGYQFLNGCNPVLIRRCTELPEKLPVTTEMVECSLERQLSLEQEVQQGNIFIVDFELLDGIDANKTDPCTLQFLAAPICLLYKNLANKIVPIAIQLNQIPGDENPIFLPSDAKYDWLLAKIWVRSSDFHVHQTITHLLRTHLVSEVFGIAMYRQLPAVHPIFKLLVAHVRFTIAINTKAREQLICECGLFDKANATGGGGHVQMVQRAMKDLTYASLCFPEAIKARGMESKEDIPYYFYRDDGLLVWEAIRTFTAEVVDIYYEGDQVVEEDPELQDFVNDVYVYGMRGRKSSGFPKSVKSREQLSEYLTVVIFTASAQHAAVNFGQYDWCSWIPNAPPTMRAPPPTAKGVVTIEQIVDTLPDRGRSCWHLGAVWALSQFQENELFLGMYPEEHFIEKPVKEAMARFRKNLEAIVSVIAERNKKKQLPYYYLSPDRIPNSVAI
# Experimental: mM glutathione, and 250 mM sucrose) and the protein concentration was defined. Potassium phosphate buffer (0.1 M, pH = 7.4) plus glutathione (2.5 mM) was added to dilute microsomes, which were then seeded in a 96-well plate. Test compounds 1-9 (10 µM) or DMSO (1%) were added and preincubated for 15 min on ice. MK886 (10 µM) and MD-52 (1 µM) were used as reference drugs.
# The reactions started by adding 20 µM of PGH2, and 1 min later, 100 µl of a solution containing FeCl3 (40 mM), citric acid (80 mM), and 11β-PGE 2 (10 µM) were added for stopping the conversion of PGH2. After the extraction of PGE2 and 11β-PGE 2 (internal stardard) by solid-phase extraction, the quantity of product formation (PGE2) was determined by RP-HPLC.114
# Cell-free 5-LO activity assay
# Human recombinant 5-LO was expressed in E.coli BL21 transformed with pT3-5-LO plasmid at 30 °C overnight 15.2 A lysis buffer (50 mM triethanolamine, pH = 8.0, 5 mM EDTA, 1 mM phenylmethanesulfonyl fluoride, 60 µg/mL soybean trypsin inhibitor, 2 mM dithiothreitol and lysozyme) was added. […] Finally, a solid-phase extraction then was performed using C18 RP-columns (100 mg, UCT, Bristol, PA, USA) and RP-HPLC was used to quantify 5-LOX products.3 16 The 5-LO inhibitor zileuton (3 µM) was used as positive control. […]
# [1] = system: zymosan-induced peritonitis; assay: Zymosan-induced peritonitis in mice; type: in vivo, mouse
# Experimental: Figure 5 Effect of compound 3 in zymosan-induced peritonitis in mice. Mice were randomly divided into different experimental groups: control group (Ctrl), model group (zymosan + vehicle compound 3), zymosan + compound 3 (i.p. injection 30 min after i.p. injection of zymosan) group, and zymosan + dexamethasone (i.p. injection 30 min after i.p. injection of zymosan) group. At (A) 4 and (B) 24 h after injection, peritoneal exudate from each mouse was recovered, and the total cell number was evaluated. Results are expressed as mean ± SD. For statistical analysis see SI.
# Figure 6 Analysis of cytokine levels collected in the peritoneal exudate of mice from different experimental groups: (A, B) IL-1β, (C, D) IL-6, (E, F) PGE2, and (G, H) IL-10. Results (normalized to exudate levels) are expressed as mean ± SD. For statistical analysis see SI.
# Induction of peritonitis in mice and Enzyme-Linked Immunosorbent Assay (ELISA)
# To examine the anti-inflammatory action of compound 3, we next evaluated the biological activity of
# compound 3 in a mouse model of zymosan-induced peritonitis, as as previously described. 13,14 26, 27
# To this aim, mice were randomly divided into different experimental groups: control group (Ctrl),
# model group (zymosan + vehicle compound 3), zymosan + compound 3 (0.1, 1, and 10 mg/kg), and
# zymosan + dexamethasone (3 mg/kg) group. Animals received the selected compound or
# dexamethasone intraperitoneally (i.p.) 30 min after i.p. injection of zymosan (500 mg/kg)26, 27. Ctrl
# and model groups received an equal volume of vehicle (PBS or DMSO/saline 1:3, respectively).
# Peritoneal exudates were collected at selected time points (4 and 24 h) by washing the cavity with 2
# mL of PBS. Then cell number of lavage fluids was determined by TC10 automated cell counter (Bio-
# Rad, Milan, Italy) using disposable slides. The remaining lavage fluids were centrifuged at 3000 rpm
# for 20 min at 4 °C, and supernatants were frozen at −80 °C for further ELISA analysis according to
# the manufacturer instructions (eBioscience Co., San Diego, CA, USA)10 23 of IL-1β, IL-6, PGE 2 and
# IL-10 following the procedure previously described15-17 28-30. Dexamethasone and zymosan A were
# purchased from Sigma-Aldrich (Milan, Italy). DMSO was purchased from Merck (Italy). Unless
# otherwise stated, all the other reagents were purchased from Carlo Erba (Milan, Italy).
# The data and statistical analysis in this study comply with the international recommendations on
# experimental design and analysis in preclinical pharmacology18-2031-33. The results obtained were
# expressed as the mean ± S.D. or as mean ± S.E.M., as reported in detail in the figure legends. IC 50
# values were calculated by nonlinear regression using GraphPad Prism Version 8.0 software (San
# Diego, CA) one site binding competition. Statistical evaluation of the data was performed by one-
# [2] = 10 mg/kg i.p., 4 h (P ≤ 0.05) and 24 h (P ≤ 0.01)
SMILES,5-LO residual activity (%) (Human recombinant 5-LO),"leucocyte recruitment (total cell number in peritoneal exudate) ([1]; 1 mg/kg i.p., 4 and 24 h, P ≤ 0.05)","leucocyte recruitment (total cell number in peritoneal exudate) ([1]; 10 mg/kg i.p. 30 min after zymosan, 4 h, P ≤ 0.05)","leucocyte recruitment (total cell number in peritoneal exudate) ([1]; 10 mg/kg i.p. 30 min after zymosan, 24 h, P ≤ 0.01)","IL-10 level in peritoneal exudate ([1]; 10 mg/kg i.p., 4 and 24 h)","PGE2 level in peritoneal exudate ([1]; 10 mg/kg i.p., 4 and 24 h (P ≤ 0.01))","IL-1β level in peritoneal exudate [1, 2]","IL-6 level in peritoneal exudate [1, 2]"
O=C(Nc1nnc(-c2ccc(-c3cccc(O)c3)cc2)s1)c1ccccc1Br [compound 3],n.i. (125) %,remarkable effect,reduced,reduced,modulated only at 24 h,significantly reduced,significantly reduced,significantly reduced
Nc1ccccc1-c1ccc(-c2nnc(NC(=O)c3c(Cl)ccnc3Cl)s2)cc1 [compound 9],n.i. (75.9) %,–,–,–,–,–,–,–
